Where two headings read alike, the source gives them in different places.
Columns and labels:
platelets = test: In vivo platelet toxicity test in mice; details: intraperitoneal
Procedure: The in vivo platelet toxicity test was performed by using 5-6 week old female C57BL/6J mice. The C57BL/6J mice were purchased from Beijing Vital River Laboratory Animal Technology Co., Ltd. and housed under specific pathogen-free (SPF) conditions, with a 12-hour light/12-hour dark cycle, and free access to food and water. […] Different doses of the molecules to be tested (e.g., 0.1, 0.5, 2.5 mg/kg or 2, 5, 20 mg/kg) were prepared in advance with the aforementioned vehicle, and administered to mice via intraperitoneal injection at a volume of 200 µL for each mouse. After administration was completed, approximately 50 µL of blood was collected from each mouse at different time points via the intra-canthus sampling method into EDTA anticoagulant tubes (RAM Scientific), then a routine analysis of blood was performed by using a hematology analyzer, and the platelets was counted.

Molt-4 cells [1] = test: Detection of E3 enzyme-dependence: Molt-4 cell killing with or without pomalidomide (CCK-8); format: cell-based; details: 10 µM pomalidomide, Figure 2
Procedure: Actively growing and healthy Molt-4 cells were collected, centrifuged at 1000 rpm for 5 minutes, and after removing the supernatant, the cells were resuspended in fresh RPMI-1640 medium containing 10% fetal bovine serum. Cell counting was then performed. The cell density was adjusted to 120,000 cells per milliliter, and 100 µL of the cell suspension was added to each well of a 96-well transparent cell culture plate. It was noted that the edge wells of the 96-well plate were not used for testing, and 300 µL of PBS alone was added to these wells to reduce medium evaporation.
Molt-4 cells were plated in duplicate according to the number of the tested small molecules, so as to test the effects with and without the addition of pomalidomide (a competitive ligand specific for E3 ligase), in which one half of the parallel cells was added 10 µM pomalidomide. A series of small molecule concentration gradients (0.001, 0.003, 0.01, 0.03, 0.1, 0.3, 1, and 3 µM) were pre-set, and a series of 2× drug dilutions for the above concentrated were prepared in DMEM medium containing 10% fetal bovine serum. 100 µL of the above DMEM medium containing the gradient concentrations of the drug was added to 96-well plates that have been pre-plated with cells, so that the final drug concentration in each well was the pre-set series of concentrations respectively. Three replicate wells were used for each test drug concentration. The 96-well plates were placed back in a 37°C incubator, and the cell viability was detected after three days.
Cell viability after drug treatment was detected by using the CCK-8 method: three days after adding the drugs, the plates were taken out, and the supernatant was discarded. Then, 100 µL of pre-prepared CCK-8 working solution was added to each well. The CCK-8 working solution was obtained through diluting a CCK-8 stock solution (C0041, Beyotime) by 10-fold volumn with a serum-free DMEM culture medium. The 96-well plates with the added CCK-8 working solution were placed back in the 37°C incubator and incubated for 0.5-2 hours. The plates were then taken out, and the absorbance value (OD value) of each well was measured at a wavelength of 450 nm. The cell viability in each experimental group was calculated according to the following formula: Relative cell viability (%) = (Blank control group - Experimental group) / Blank control group × 100%.

MRC5 cells = test: Senescent cell killing activity test, MRC5 cell model (CCK-8); format: cell-based, human; details: for activity for killing senescent cells at lower concentrations compared to A-1331852: 0.01 µM and 0.03 µM; for selectivity for senescent cells: Figures 3G-3L
Procedure: (§1) To avoid replication of the induced senescent cells, low-passage proliferating HEF cells (<10 passages), MRC5 cells (<6 passages), and BJ cells (<10 passages) were used as normal controls. For chemical drug induced senescence, HEF cells were treated with 10 µM etoposide (Selleck, S1225) for 36-48 hours, MRC5 cells were treated with 5 µM bleomycin (Selleck, S1225) for 72 hours, and BJ cells were treated with 10 µg/mL bleomycin for 72 hours. Three days after the treatment, the cells were subcultured in fresh culture medium at a 1:3 ratio for 72 hours before further analysis and use.
(§2) Non-senescent and induced-senescent HEF cells, non-senescent and induced-senescent MRC5 cells, and non-senescent and induced-senescent BJ cells were respectively digested with trypsin, and centrifuged at 1000 rpm for 5 minutes. Then, the supernatant was removed, and the cells were resuspended in fresh DMEM culture medium containing 10% fetal bovine serum for counting. The cell density was adjusted so that the non-senescent cell density was 4000 cells/100 µL and the senescent cell density was 7000 cells/100 µL. 100 µL of the cell suspension was added to each well of a 96-well transparent cell culture plate. It was noted that the edge wells of the 96-well plate were not used as testing wells, and 300 µL of PBS alone was added to these wells to reduce evaporation of the culture medium. The 96-well plates with the well-plated cells were placed back in a 37°C incubator for overnight culture until the cells adhered. On the next day, the small molecule compounds to be tested were prepared and added after the cells had adhered.
(§3) A series of small molecule concentration gradients (0.01, 0.03, 0.1, 0.3, 1, 3, 10, and 25 µM) were pre-set, and a series of 2× drug dilutions for the above concentrations were prepared in DMEM culture medium containing 10% fetal bovine serum. 100 µL of the above DMEM culture medium containing the gradient concentrations of the drug was added to each well of the 96-well plate that had been well-plated with cells, so that the final drug concentration in each well was the pre-set series of concentrations. Three replicate wells were used for each test drug concentration. The 96-well plates were placed back in a 37°C incubator, and cell viability was measured after three days.
(§4) Three days after adding the drug, the plates were taken out, and the supernatant was discarded. 100 µL of pre-prepared CCK-8 working solution was added to each well. The CCK-8 working solution was obtained through diluting a CCK-8 stock solution (C0041, Beyotime) with a serum-free DMEM culture medium by 10-fold volumn. The 96-well plates containing the CCK-8 working solution were placed back in the 37°C incubator and incubated for 0.5-2 hours. The plates were then taken out, and the absorbance value (OD value) of each well was measured at a wavelength of 450 nm. The cell viability in each experimental group was calculated according to the following formula: Relative cell viability (%) = (Blank control group - Experimental group) / Blank control group × 100%.

Molt-4 cells [2] = test: Molt-4 cell killing activity test (CCK-8); format: cell-based; details: for killing Molt-4 cells at different concentrations (Figure 1), in words: 0.001-3 µM, comparison with control molecules; for EC50: Homo sapiens
Method in brief: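 Molt-4 cells in RPMI-1640 with 10% FBS were exposed to compounds at 0.001–3 µM final, triplicate wells, for three days at 37°C. Viability was read by CCK-8 absorbance at 450 nm after 0.5–2 h, expressed relative to blank control.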

Bcl-xL protein = target: T1, Bcl-xL protein (Homo sapiens, UniProt Q07817); test: Degradation experiment of Bcl-xL target protein (Western blot in Molt-4 cells); format: cell-based; details: 100 nM, 0, 2, 6, 16 h, GAPDH internal control, Figure 4
T1 construct: host or cells: Molt-4 cells
T1 sequence (Q07817 whole entry): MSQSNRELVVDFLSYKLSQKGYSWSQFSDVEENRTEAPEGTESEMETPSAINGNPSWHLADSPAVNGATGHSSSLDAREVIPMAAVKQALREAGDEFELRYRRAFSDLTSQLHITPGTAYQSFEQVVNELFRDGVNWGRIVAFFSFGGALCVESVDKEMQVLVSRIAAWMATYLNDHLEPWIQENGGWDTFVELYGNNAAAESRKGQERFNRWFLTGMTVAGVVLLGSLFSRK
Procedure: Actively growing and healthy Molt-4 cells were subcultured into a fresh RPMI-1640 medium containing 10% fetal bovine serum, and each PROTAC molecule was added thereto at a final concentration of 100 nM. After drug treatment for the specified times (0, 2, 6, and 16 hours), the cells were collected, the supernatant was discarded by centrifugation, and the cells were washed twice with pre-cooled PBS buffer. Total protein was extracted with a lysis buffer (Servicebio, G2002-100ML), and the protein concentration was normalized by using a BCA protein quantification kit (Servicebio, G2026). Protein samples were mixed with a protein-loading buffer and incubated at 95°C for 5 minutes. Western blotting experiments were performed by using the following antibodies: Bcl-xL (Abcam, catalog number ab32370), diluted at 1:500; GAPDH antibody (Servicebio, catalog number GB15004), diluted at 1:1000; and horseradish peroxidase-conjugated goat anti-rabbit secondary antibody (Servicebio, catalog number GB23303), diluted at 1:5000.

HEF cells = test: Senescent cell killing activity test, HEF cell model (CCK-8); format: cell-based, human; details: for toxicity on normal non-senescent HEF cells: higher concentration (25 µM)
Procedure: as §1, §2, §3, §4

BJ cells = test: Senescent cell killing activity test, BJ cell model (CCK-8); format: cell-based, human; details: Figures 3M-3O; for killing effects for senescent cells: bleomycin-induced senescent skin-derived BJ cell model
Procedure: as §1, §2, §3, §4

[3] = Metabolic stability assay in liver microsomes (human); format: in vitro ADME
Procedure: (§5) The metabolic reaction of compounds in liver microsome was performed in a system with a total volume of 400 µL, and the following steps below were sequentially performed for the reaction and detection: 1) 200 µL of phosphate buffer (200 mM), 106 µL of sterile ultrapure water, and 40 µL of magnesium chloride solution (50 mM) were added to each detection tube to prepare a reaction working solution. 2) Two reaction systems with or without adding NADPH were prepared for each compound to be tested. For the reaction system with adding NADPH: 10 µL of liver microsomes (20 mg/mL) and 40 µL of NADPH (10 mM) were added to the above working solution; for the reaction system without adding NADPH: 10 µL of liver microsomes (20 mg/mL) and 40 µL of sterile ultrapure water were added to the above working solution. The final concentration of liver microsomes in both reaction systems was 0.5 mg/mL. 3) 4 µL of the compound to be tested ([…]) was added to each reaction tube, resulting in a final concentration of 1 µM for the compound in the reaction system. The detection tubes were placed at 37°C for reaction. 4) 50 µL samples were taken from each detection tube at 0, 15, 30, 45, and 60 minutes after adding the compound. The reaction was terminated by adding cold acetonitrile containing IS (100 nM alprazolam, 200 nM labetalol, 200 nM caffeine, and 2 µM ketoprofen) in a 4× volume. The samples were centrifuged at 3220 g for 40 minutes, 100 µL of the supernatant was mixed with 100 µL of ultrapure water, and a sample was taken for LC-MS/MS analysis.
(§6) Calculation of in vitro liver microsomal metabolic half-life and in vitro metabolic intrinsic clearance rate: The LC-MS detection results were analyzed to obtain the percentage of the remaining amount of the tested compound relative to the initial amount at each time point. The natural logarithm of the remaining percentage was linearly fitted against the incubation time.

[4] = Metabolic stability assay in liver microsomes (mouse); format: in vitro ADME
Procedure: as §5, §6

[5] = 72 h, Molt-4 cells, three days, CCK-8, read-out: EC50 (Molt-4)
[6] = Bcl-xL-positive Molt-4 cells, read-out: cellular activity / killing activity (Molt-4 cells)
[7] = human liver microsomes 0.5 mg/mL, 1 µM compound, 37°C
[8] = mouse liver microsomes 0.5 mg/mL, 1 µM compound, 37°C

Structure (SMILES) | cell killing activity after addition of pomalidomide (+poma) compared to without (-poma) (Molt-4 cells [1]) | activity for killing senescent cells at lower concentrations compared to A-1331852 (MRC5 cells) | selectivity for senescent cells (MRC5 cells) | killing Molt-4 cells at different concentrations (Figure 1), in words (Molt-4 cells [2]) | EC50 (Molt-4 cells [2]; [5]) [nM] | EC50 (Molt-4 cells [2]; [6]) [nM] | degradation of the Bcl-xL protein (Bcl-xL protein) | toxicity on normal non-senescent HEF cells (HEF cells) | killing effects for senescent cells (BJ cells) | killing effect for the normal early-passage BJ cells (BJ cells) | also measured
O=C1CCN(c2ccc(N3CCN(CC#Cc4ccc(OCCCc5ccc(N6CCc7cccc(C(=O)Nc8nc9ccccc9s8)c7C6)nc5C(=O)O)c(F)c4)CC3)cc2)C(=O)N1 [APQ9] | significantly reduced cell killing activity | superior to that of A-1331852 | better selectivity for senescent cells | comparable to A-1331852 | < 10 | < 10 | had the ability to degrade the Bcl-xL protein | no toxicity on normal non-senescent HEF cells | – | – | platelet number in peripheral blood, in words (platelets; 5 mg/kg, Figure 5B): slightly decrease in platelet number; activity for killing senescent cells at lower concentrations compared to A-1331852 (HEF cells; HEF cell model, 0.01 µM and 0.03 µM): better activity for killing senescent cells at lower concentrations; killing senescent HEF cells (HEF cells; etoposide-induced senescent vs normal HEF cells, Figures 3A-3F): efficiently and selectively kill senescent HEF cells
O=C1CCN(c2ccc(N3CCC(CN4CCN(CC#Cc5ccc(OCCCc6ccc(N7CCc8cccc(C(=O)Nc9nc%10ccccc%10s9)c8C7)nc6C(=O)O)c(F)c5)CC4)CC3)cc2F)C(=O)N1 [APQ10-3] | – | – | – | comparable to A-1331852 | < 10 | < 10 | – | – | highly selective and potent killing effects for senescent cells | without significant killing effect for the normal early-passage BJ cells | –
O=C1CCN(c2ccc(N3CCN(CC#Cc4ccc(OCCCc5ccc(N6CCc7cccc(C(=O)Nc8nc9ccccc9s8)c7C6)nc5C(=O)O)c(F)c4)CC3)cc2F)C(=O)N1 [APQ902] | significantly reduced cell killing activity | superior to that of A-1331852 | better selectivity for senescent cells | comparable to A-1331852 | < 10 | < 10 | had the ability to degrade the Bcl-xL protein | – | highly selective and potent killing effects for senescent cells | without significant killing effect for the normal early-passage BJ cells | –
Cc1c(-c2ccc(N3CCc4cccc(C(=O)Nc5nc6ccccc6s5)c4C3)nc2C(=O)O)cnn1CC12CC3CC(CC(C3)C1)C2 [Compound A-1331852, A-1331852, reference compound] | – | – | – | highest cellular activity in the test | < 10 | – | – | toxic killing effects on normal non-senescent HEF cells | – | – | toxicity on platelets (platelets; 0.5 mg/kg, Figure 5A): severe toxicity on platelets; platelet number in peripheral blood (platelets; 5 mg/kg, Figure 5B): below 100 × 10^9/L; clearance rate (metabolic clearance rate) ([3]; human liver microsomes): 53.07 µL/min/mg; Clint [3, 7]: 53.07 µL/min/mg protein; T1/2 [3, 7]: 26.12 min; clearance rate (metabolic clearance rate) ([4]; mouse liver microsomes): 18.43 µL/min/mg; Clint [4, 8]: 18.43 µL/min/mg protein; T1/2 [4, 8]: 75.21 min

— patent EP4759810A1, “PROTAC TARGETING BCL-XL PROTEIN AND USE THEREOF” (BEIJING SUNCELL BIO-MEDICAL CO., LTD., priority 2023, dated 2025)
